Test results reported in patent US12023333B2, “Phenyl-sulfamoyl.benzoyc acids as ERAP1 modulators” (GREY WOLF THERAPEUTICS LIMITED, priority 2019, dated 2024).

The compounds below were run against T1, Purified ERAP1(37-941)-10His (ERAP1) (Homo sapiens, UniProt Q9NZ08) (assay: ERAP1 mediated hydrolysis of an amide substrate measured in a biochemical system (10-mer decapeptide substrate)). Conditions: 10-mer substrate, 23° C. for 1 h, excitation 279 nm and emission 355 nm; read-out: IC50 vs Decapeptide WRVYEKC(Dnp)ALK-acid (where Dnp is Dinitrophenyl maleimide) (10-mer).
T1 construct: Purified ERAP1(37-941)-10His (ERAP1); 10His (C)
T1 sequence (Q9NZ08 37-941): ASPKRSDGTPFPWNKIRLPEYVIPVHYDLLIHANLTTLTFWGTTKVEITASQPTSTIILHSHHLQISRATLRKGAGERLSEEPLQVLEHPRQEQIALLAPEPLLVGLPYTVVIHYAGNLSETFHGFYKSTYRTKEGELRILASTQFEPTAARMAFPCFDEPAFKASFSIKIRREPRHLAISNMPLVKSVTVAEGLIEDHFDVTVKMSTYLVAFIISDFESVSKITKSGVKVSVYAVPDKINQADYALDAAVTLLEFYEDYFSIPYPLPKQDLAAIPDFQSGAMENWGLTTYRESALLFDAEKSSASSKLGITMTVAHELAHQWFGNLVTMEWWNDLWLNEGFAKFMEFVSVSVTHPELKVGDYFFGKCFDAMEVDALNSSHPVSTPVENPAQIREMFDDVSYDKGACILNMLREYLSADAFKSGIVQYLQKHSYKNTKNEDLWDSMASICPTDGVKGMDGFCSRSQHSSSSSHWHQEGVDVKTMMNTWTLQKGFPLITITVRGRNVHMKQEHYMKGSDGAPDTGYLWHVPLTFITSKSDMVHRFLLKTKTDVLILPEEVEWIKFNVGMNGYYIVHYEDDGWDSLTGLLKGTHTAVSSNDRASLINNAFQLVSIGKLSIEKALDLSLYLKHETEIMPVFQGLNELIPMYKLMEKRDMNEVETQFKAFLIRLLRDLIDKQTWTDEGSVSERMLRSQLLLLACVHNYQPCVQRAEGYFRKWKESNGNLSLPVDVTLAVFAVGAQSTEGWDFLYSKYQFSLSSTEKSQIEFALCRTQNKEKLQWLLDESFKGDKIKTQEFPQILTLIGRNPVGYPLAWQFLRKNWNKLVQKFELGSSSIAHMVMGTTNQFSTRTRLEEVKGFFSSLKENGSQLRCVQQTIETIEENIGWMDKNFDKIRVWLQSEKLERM
In short: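 ERAP1(37-941)-10His preincubated with compound in 25 mM Bis-tris propane, 0.05% HPMC, pH 7.75, then reacted 1 h at 23 °C with 10-mer WRVYEKC(Dnp)ALK (100 μM solution added in equal volume). Fluorescence read at ex 279/em 355 nm; IC50 from 4-parameter fit.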

IC50, < 500 nM:
N#Cc1ccc(-c2cccnc2)c(NS(=O)(=O)c2cc(C(=O)O)ccc2C2CC2)c1 [Example 97, 3-(N-(5-cyano-2-(pyridin-3-yl)phenyl)sulfamoyl)-4-cyclopropylbenzoic acid]
O=C(O)c1ccc(C2CC2)c(S(=O)(=O)Nc2cc(C(F)(F)F)ccc2-c2cccnc2)c1 [Example 98, 4-cyclopropyl-3-(N-(2-(pyridin-3-yl)-5-(trifluoromethyl)phenyl)sulfamoyl)benzoic acid]
O=C(O)c1ccc(C2CC2)c(S(=O)(=O)Nc2cc(C(F)(F)F)ccc2-n2cccc2)c1 [Example 99, 3-(N-(2-pyrrol-1-yl-5-(trifluoromethyl)phenyl)sulfamoyl)-4-cyclopropylbenzoic acid]
COc1ccc(C(=O)O)cc1S(=O)(=O)Nc1cc(C#N)ccc1-c1ccc(F)s1 [Example 100, 3-(N-(5-cyano-2-(5-fluorothiophen-2-yl)phenyl)sulfamoyl)-4-methoxybenzoic acid]
CCc1ccc(C(=O)O)cc1S(=O)(=O)Nc1cc(C#N)ccc1-c1ccc(F)s1 [Example 101, 3-(N-(5-cyano-2-(5-fluorothiophen-2-yl)phenyl)sulfamoyl)-4-ethylbenzoic acid]
N#Cc1ccc(-c2ccc(F)s2)c(NS(=O)(=O)c2cc(C(=O)O)ccc2C2CC2)c1 [Example 102, 3-(N-(5-cyano-2-(5-fluorothiophen-2-yl)phenyl)sulfamoyl)-4-cyclopropylbenzoic acid]
Cc1ccc(-c2ccc(S(C)(=O)=O)cc2NS(=O)(=O)c2cc(C(=O)O)ccc2C2CC2)s1 [Example 103, 4-cyclopropyl-3-(N-(5-(methylsulfonyl)-2-(5-methylthiophen-2-yl)phenyl)sulfamoyl)benzoic acid]
CCc1ccc(C(=O)O)cc1S(=O)(=O)Nc1cc(C(N)=O)ccc1-c1ccccn1 [Example 104, 3-(N-(5-carbamoyl-2-(pyridin-2-yl)phenyl)sulfamoyl)-4-ethylbenzoic acid]
COc1ccc(C(=O)O)cc1S(=O)(=O)Nc1cc(S(C)(=O)=O)ccc1-c1ccc(F)s1 [Example 105, 3-(N-(2-(5-fluorothiophen-2-yl)-5-(methylsulfonyl)phenyl)sulfamoyl)-4-methoxybenzoic acid]
CCc1ccc(C(=O)O)cc1S(=O)(=O)Nc1cc(S(C)(=O)=O)ccc1-c1ccc(F)s1 [Example 106, 4-ethyl-3-(N-(2-(5-fluorothiophen-2-yl)-5-(methylsulfonyl)phenyl)sulfamoyl)benzoic acid]
CCc1ccc(C(=O)O)cc1S(=O)(=O)Nc1cc(C#N)ccc1-n1cccc1 [Example 107, 3-(N-(5-cyano-2-(pyrrol-1-yl)phenyl)sulfamoyl)-4-ethylbenzoic acid]
CCc1ccc(C(=O)O)cc1S(=O)(=O)Nc1cc(S(C)(=O)=O)ccc1-n1cccc1 [Example 108, 4-ethyl-3-(N-(5-(methylsulfonyl)-2-(pyrrol-1-yl)phenyl)sulfamoyl)benzoic acid]
N#Cc1ccc(-n2cccc2)c(NS(=O)(=O)c2cc(C(=O)O)ccc2C2CC2)c1 [Example 109, 3-(N-(5-cyano-2-(pyrrol-1-yl)phenyl)sulfamoyl)-4-cyclopropylbenzoic acid]
CS(=O)(=O)c1ccc(-n2cccc2)c(NS(=O)(=O)c2cc(C(=O)O)ccc2C2CC2)c1 [Example 110, 4-cyclopropyl-3-(N-(5-(methylsulfonyl)-2-(pyrrol-1-yl)phenyl)sulfamoyl) benzoic acid]
N#Cc1ccc(-c2ccc(Cl)s2)c(NS(=O)(=O)c2cc(C(=O)O)ccc2C2CC2)c1 [Example 111, 3-(N-(2-(5-chlorothiophen-2-yl)-5-cyanophenyl)sulfamoyl)-4-cyclopropylbenzoic acid]
COc1ccc(C(=O)O)cc1S(=O)(=O)Nc1cc(C#N)c(F)cc1-c1cccc(F)c1 [Example 112, 3-(N-(4-cyano-3′,5-difluoro-[1,1′-biphenyl]-2-yl)sulfamoyl)-4-methoxybenzoic acid]
O=C(O)c1ccc(C2CC2)c(S(=O)(=O)Nc2cc(C(F)(F)F)ccc2-c2ccc(Cl)s2)c1 [Example 113, 3-(N-(2-(5-chlorothiophen-2-yl)-5-(trifluoromethyl)phenyl)sulfamoyl)-4-cyclopropylbenzoic acid]
O=C(O)c1ccc(C2CC2)c(S(=O)(=O)Nc2cc(C(F)(F)F)ccc2-c2ccc(C3CC3)s2)c1 [Example 114, 4-cyclopropyl-3-(N-(2-(5-cyclopropylthiophen-2-yl)-5-(trifluoromethyl)phenyl)sulfamoyl)benzoic acid]
CS(=O)(=O)c1ccc(-c2ccc(C3CC3)s2)c(NS(=O)(=O)c2cc(C(=O)O)ccc2C2CC2)c1 [Example 115, 4-cyclopropyl-3-(N-(2-(5-cyclopropylthiophen-2-yl)-5-(methylsulfonyl)phenyl)sulfamoyl)benzoic acid]
CS(=O)(=O)c1ccc(-c2ccc(F)s2)c(NS(=O)(=O)c2cc(C(=O)O)ccc2C2CC2)c1 [Example 116, 4-cyclopropyl-3-(N-(2-(5-fluorothiophen-2-yl)-5-(methylsulfonyl)-phenyl)sulfamoyl)benzoic acid]
COc1ccc(C(=O)O)cc1S(=O)(=O)Nc1cc(C(F)(F)F)ccc1-c1ccc(F)s1 [Example 117, 3-(N-(2-(5-fluorothiophen-2-yl)-5-(trifluoromethyl)phenyl)sulfamoyl)-4-methoxybenzoic acid]
CCc1ccc(C(=O)O)cc1S(=O)(=O)Nc1cc(C#N)ccc1-c1ccc(C#N)s1 [Example 118, 3-(N-(5-cyano-2-(5-cyanothiophen-2-yl)phenyl)sulfamoyl)-4-ethylbenzoic acid]
COc1ccc(C(=O)O)cc1S(=O)(=O)Nc1cc(C#N)ccc1-c1ccc(C#N)s1 [Example 119, 3-(N-(5-cyano-2-(5-cyanothiophen-2-yl)phenyl)sulfamoyl)-4-methoxybenzoic acid]
CCc1ccc(C(=O)O)cc1S(=O)(=O)Nc1cc(S(C)(=O)=O)ccc1-c1ccc(C#N)s1 [Example 120, 3-(N-(2-(5-cyanothiophen-2-yl)-5-(methylsulfonyl)phenyl)sulfamoyl)-4-ethylbenzoic acid]
COc1ccc(C(=O)O)cc1S(=O)(=O)Nc1cc(C#N)ccc1-n1cccc1 [Example 121, 3-(N-(5-cyano-2-(pyrrol-1-yl)phenyl)sulfamoyl)-4-methoxybenzoic acid]
O=C(O)c1ccc(C2CC2)c(S(=O)(=O)Nc2cc(C(F)(F)F)ccc2-c2ccc(F)s2)c1 [Example 122, 4-cyclopropyl-3-(N-(2-(5-fluorothiophen-2-yl)-5-(trifluoromethyl)phenyl)sulfamoyl)benzoic acid]
CS(=O)(=O)c1ccc(-c2ccc(Cl)s2)c(NS(=O)(=O)c2cc(C(=O)O)ccc2C2CC2)c1 [Example 123, 3-(N-(2-(5-chlorothiophen-2-yl)-5-(methylsulfonyl)phenyl)sulfamoyl)-4-cyclopropylbenzoic acid]
CS(=O)(=O)c1ccc(-c2ccc(C#N)s2)c(NS(=O)(=O)c2cc(C(=O)O)ccc2C2CC2)c1 [Example 124, 3-(N-(2-(5-cyanothiophen-2-yl)-5-(methylsulfonyl)phenyl)sulfamoyl)-4-cyclopropylbenzoic acid]
COc1ccc(C(=O)O)cc1S(=O)(=O)Nc1cc(C(F)(F)F)ccc1-c1ccc(C#N)s1 [Example 125, 3-(N-(2-(5-cyanothiophen-2-yl)-5-(trifluoromethyl)phenyl)sulfamoyl)-4-methoxybenzoic acid]
N#Cc1ccc(-c2ccc(C#N)s2)c(NS(=O)(=O)c2cc(C(=O)O)ccc2C2CC2)c1 [Example 126, 3-(N-(5-cyano-2-(5-cyanothiophen-2-yl)phenyl)sulfamoyl)-4-cyclopropylbenzoic acid]
N#Cc1ccc(-c2ccc(C(F)(F)F)cc2NS(=O)(=O)c2cc(C(=O)O)ccc2C2CC2)s1 [Example 127, 3-(N-(2-(5-cyanothiophen-2-yl)-5-(trifluoromethyl)phenyl)sulfamoyl)-4-cyclopropylbenzoic acid]
CCc1ccc(C(=O)O)cc1S(=O)(=O)Nc1cc(C(F)(F)F)ccc1-c1nccs1 [Example 128, 4-ethyl-3-(N-(2-(thiazol-2-yl)-5-(trifluoromethyl)phenyl)sulfamoyl)benzoic acid]
CCc1ccc(C(=O)O)cc1S(=O)(=O)Nc1cc(C(F)(F)F)ccc1-c1cncs1 [Example 129, 4-ethyl-3-(N-(2-(thiazol-5-yl)-5-(trifluoromethyl)phenyl)sulfamoyl)benzoic acid]
CCc1ccc(C(=O)O)cc1S(=O)(=O)Nc1cc(C(F)(F)F)c(F)cc1-n1cccc1 [Example 130, 4-ethyl-3-(N-(4-fluoro-2-(pyrrol-1-yl)-5-(trifluoromethyl)phenyl)sulfamoyl)benzoic acid]
CCc1ccc(C(=O)O)cc1S(=O)(=O)Nc1cc(C(F)(F)F)c(Cl)cc1-n1cccc1 [Example 131, 3-(N-(4-chloro-2-(pyrrol-1-yl)-5-(trifluoromethyl)phenyl)sulfamoyl)-4-ethylbenzoic acid]
